Experiments:
[1] = Displacement of [3H]di-O-tolylguanidine from rat brain membrane sigma 2 receptor after 120 mins in the presence of (+)-pentazocin
Rattus norvegicus = organism: Rattus norvegicus; assay: Selectivity ratio of Ki for rat brain membrane sigma 1receptor to Ki for rat brain membrane sigma 2 receptor
[2] = target: Sigma non-opioid intracellular receptor 1 (Rattus norvegicus, UniProt Q9R0C9); assay: Displacement of [3H](+)-pentazocine from rat brain membrane sigma 1receptor after 120 mins
Sequence of Sigma non-opioid intracellular receptor 1 (Q9R0C9 whole entry): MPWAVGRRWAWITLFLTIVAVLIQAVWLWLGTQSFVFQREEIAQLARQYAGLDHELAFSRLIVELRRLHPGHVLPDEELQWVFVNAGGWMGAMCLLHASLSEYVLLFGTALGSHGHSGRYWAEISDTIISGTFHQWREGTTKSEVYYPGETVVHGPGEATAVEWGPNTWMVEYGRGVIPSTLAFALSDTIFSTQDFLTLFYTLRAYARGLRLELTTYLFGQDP

Row | Compound | Ki [1] | Ratio Ki (Rattus norvegicus) | Ki [2]
1 | c1ccc(CCN2CCN(c3ccccn3)CC2)cc1 | 119 nM | 2.7 | 
2 | c1ccc(CCCN2CCN(c3cccnc3)CC2)cc1 | 110 nM | 0.19 | 21.2 nM
3 | c1ccc(CCN2CCN(c3ccncc3)CC2)cc1 | 69.7 nM | 0.6 | 41.8 nM
4 | c1ccc(CCN2CCN(c3cccnc3)CC2)cc1 | 440 nM | 0.22 | 97.2 nM
5 | c1ccc(CCCN2CCN(c3ccncc3)CC2)cc1 | 84 nM | 0.41 | 34.2 nM
6 | c1ccc(CCCN2CCN(c3ccccn3)CC2)cc1 | 4.91 nM | 16.9 | 
